Test results as given in patent US20010055755A1, “Dendritic marker-expressing macrophage cultures and methods for reactivating latent HCMV” (priority 1997, published 2001).

Tested on: HCMV
Assay: HCMV infection of monocyte-derived dendritic cells with cytokine treatment
Assay type: cell-based
Conditions: up to day 12 post stimulation, compared with unstimulated cells
Method: PBMC were isolated as described above and plated onto primaria plates for monocyte adherence. After two hours of culture, non-adherent cells were removed by three washes in serum free medium and adherent cells were stimulated with I1-4 (1000 U/ml) and GM-CSF (50 ng/ml) as previously described (Sallusto et al., J. Exp. Med. 179:1109-1118 (1994)). Immature dendritic cells cultured in RPMI medium containing 1% sodium pyruvate were developed during the first 12 days of culture. Cell samples were collected at 12 days for flow cytometric analysis to determine the expression of dendritic and macrophage markers. Small, round dendritic cells were stimulated with […] (10 ng/ml) and IFN-γ (500 U/ml) for two days. Thereafter, the mature, adherent dendritic cells were challenged with HCMV at a MOI of 10 or mock infected as described herein.
PBMC were cultured under standard conditions with IL-4 and GM-CSF to yield monocyte-derived dendritic cells (see, e.g., Annals Surg. 226:1-5 (1997)). The dendritic cells were infected in vitro under the conditions described herein with HCMV. […] Viral growth is measured as described with antibodies against viral proteins IE and gB. Viral growth is measured at days 1, 3, 8, 12, and 20 post infection.

Question: How did the “viral expression in MDDC after additional stimulation” value turn out when “IFN-γ: cytokine used at 500 U/ml to stimulate dendritic cells” was run?
Answer: did not increase viral expression
